Test results reported in US20250360167A1 (Keryx Biopharmaceuticals, Inc., priority 2013, published 2025).

Tests used:
serum phosphorus = assay: Phase 3 trial in ESRD patients on dialysis (Example 1), 52-week Safety Assessment Period: serum phosphorus vs active control; format: in vivo, human; details: for Mean Serum Phosphorus / Mean Serum Phosphorus, % Change from Baseline / Mean Serum Phosphorus, Change from Baseline: Table B; for Serum Phosphorus, Mean / Serum Phosphorus, Median: Safety Assessment Period; for Serum Phosphorus, Mean / Serum Phosphorus, Median / Serum Phosphorus, LS Mean / Serum Phosphorus, Change from Baseline, Mean / Serum Phosphorus, Change from Baseline, Median / Serum Phosphorus, Treatment Differences, LS Mean (KRX-0502) − LS Mean (control): Table 13; for Serum Phosphorus, Change from Baseline, Mean / Serum Phosphorus, Change from Baseline, Median: Day 0 baseline
Protocol: This trial was a three-period, multicenter, safety and efficacy clinical trial.
Period 2 (Safety Assessment Period). […] Patients were followed on their randomized assignment for safety assessments over 52 weeks.
For patients randomized to the active-control group, the starting dose of phosphate binder was the last dose that was administered immediately prior to the start of the Washout Period (if the patient remained on the same phosphate binder) or at the discretion of the PI, guided by the package insert, if the patient changed binders. However, for patients whose previous dose of phosphate binder exceeded 12 pills/day, if randomized to the active-control group, their starting dose of active-control drug was at the discretion of the PI, but will not exceed 12 pills/day. Calcium acetate 667 mg capsules and sevelamer carbonate 800 mg tablets were used and were supplied by Keryx Biopharmaceuticals, Inc. (Keryx) for the duration of the trial.
Serum phosphorus and calcium were checked at Visit 5 (Week 1), and every two weeks during the first 12 weeks after Visit 4 (Randomization Visit), and monthly for the rest of the Safety Assessment Period. During the Efficacy Assessment Period, serum phosphorus and calcium were drawn weekly. These values guided study drug administration. While on study drug, the use of other phosphate binders was not permitted. […] The titration of calcium acetate and sevelamer carbonate throughout the 52-week Safety Assessment Period were according to the current package inserts for these agents and/or at the discretion of the site PI.
Serum phosphorus and calcium were performed at Screening (Visit 0); weekly during the Washout Period after Visit 1 (Week −2); at Visit 4 (Randomization Visit); at Visits 5 (Week 1), 6 (Week 2), 7 (Week 4), 8 (Week 6), 9 (Week 8), 10 (Week 10), 11 (Week 12), 12 (Week 16), 13 (Week 20), 14 (Week 24), 15 (Week 28), 16 (Week 32), 17 (Week 36), 18 (Week 40), 19 (Week 44), 20 (Week 48), and 21 (Week 52) of the 52-week Safety Assessment Period; and at Visits 22 (Week 53), 23 (Week 54), 24 (Week 55) and 25 (Week 56) of the Efficacy Assessment Period.
The efficacy analyses were based on Full Analysis (FA) population that consisted of all patients who took at least one dose of study medication and provided baseline and at least one post-baseline efficacy assessment. The safety analyses were based on safety population that was consistent of all patients who took at least one dose of study medication.
• 1. Change in serum phosphorus concentration at Weeks 12, 24, 36, 48, and 52 as compared to baseline (Visit 4). This variable will be analyzed using LOCF methodology. ANCOVA will be employed. The model will include treatment (fixed effect), and baseline (covariate).

[1] = test system: intact fibroblast growth factor 23 (FGF23); assay: Phase 2 trial (Example 2): intact FGF-23; format: in vivo, human; details: n = 63
Protocol: Change in calcium x phosphorus product, serum calcium, estimated glomerular filtration rate (eGFR), urinary phosphorus, bicarbonate levels, serum iron, UIBC, TIBC, iPTH, and intact fibroblast growth factor 23 (FGF23) from baseline (Visit 4, Week 0) to the end of treatment (Visit 11, Week 12) are also assessed as secondary endpoints.
The key secondary endpoints of the study were the mean changes in ferritin, hemoglobin and FGF-23 from baseline to the end of the 12-week treatment period versus placebo in the ITT group.

## iron (+3), x (1, 2, 3-propanetricarboxylic acid, 2-hydroxy-), y (H2O) [KRX-0502]
Serum phosphorus; Baseline, N = 277
  Mean Serum Phosphorus: 7.4 mg/dL
Serum phosphorus; Baseline, Table 12
  Phosphorus, Median: 7.20 mg/dL
Serum phosphorus; Baseline, Table 12, vs sevelamer carbonate as a single agent
  Phosphorus, Mean: 7.39 mg/dL
Serum phosphorus; Day 0 Baseline
  Serum Phosphorus, Mean: 7.39
  Serum Phosphorus, Median: 7.20
Serum phosphorus; Table 12
  Phosphorus, Week 12 Change from Baseline, Mean: -2.01 mg/dL
  Phosphorus, Week 12 Change from Baseline, Median: -2.00 mg/dL
Serum phosphorus; Week 12, ANCOVA, Day-0 baseline covariate, Table 12
  Phosphorus, LS Mean: 5.38 mg/dL
Serum phosphorus; Week 12, ANCOVA
  Serum Phosphorus, LS Mean: 5.39
Serum phosphorus; Week 12
  Serum Phosphorus, Change from Baseline, Mean: −2.01
  Serum Phosphorus, Change from Baseline, Median: −2.00
  Serum Phosphorus, Mean: 5.38
  Serum Phosphorus, Median: 5.10
  Serum Phosphorus, Treatment Differences, LS Mean (KRX-0502) − LS Mean (control): 0.07
  Mean Serum Phosphorus, % Change from Baseline: −27%
  Mean Serum Phosphorus, Change from Baseline: -2.0 mg/dL
Serum phosphorus; Week 12, LOCF
  Mean Serum Phosphorus: 5.4 mg/dL
Serum phosphorus; Week 12, Table 12
  Phosphorus, Mean: 5.38 mg/dL
  Phosphorus, Median: 5.10 mg/dL
Serum phosphorus; Week 12, control = sevelamer carbonate as a single agent
  Phosphorus, Treatment Differences, LS Mean (KRX-0502) − LS Mean (Control): 0.16 mg/dL
Serum phosphorus; Week 24, ANCOVA
  Serum Phosphorus, LS Mean: 5.26
Serum phosphorus; Week 24
  Serum Phosphorus, Change from Baseline, Mean: −2.14
  Serum Phosphorus, Change from Baseline, Median: −2.10
  Serum Phosphorus, Mean: 5.24
  Serum Phosphorus, Median: 5.10
  Serum Phosphorus, Treatment Differences, LS Mean (KRX-0502) − LS Mean (control): −0.21
  Mean Serum Phosphorus, % Change from Baseline: −30%
  Mean Serum Phosphorus, Change from Baseline: -2.2 mg/dL
Serum phosphorus; Week 24, LOCF
  Mean Serum Phosphorus: 5.2 mg/dL
Serum phosphorus; Week 36, ANCOVA
  Serum Phosphorus, LS Mean: 5.24
Serum phosphorus; Week 36
  Serum Phosphorus, Change from Baseline, Mean: −2.16
  Serum Phosphorus, Change from Baseline, Median: −2.10
  Serum Phosphorus, Mean: 5.22
  Serum Phosphorus, Median: 5.10
  Serum Phosphorus, Treatment Differences, LS Mean (KRX-0502) − LS Mean (control): −0.05
  Mean Serum Phosphorus, % Change from Baseline: −30%
  Mean Serum Phosphorus, Change from Baseline: -2.2 mg/dL
Serum phosphorus; Week 36, LOCF
  Mean Serum Phosphorus: 5.2 mg/dL
Serum phosphorus; Week 48, ANCOVA
  Serum Phosphorus, LS Mean: 5.33
Serum phosphorus; Week 48
  Serum Phosphorus, Change from Baseline, Mean: −2.07
  Serum Phosphorus, Change from Baseline, Median: −2.10
  Serum Phosphorus, Mean: 5.32
  Serum Phosphorus, Median: 5.20
  Serum Phosphorus, Treatment Differences, LS Mean (KRX-0502) − LS Mean (control): −0.12
  Mean Serum Phosphorus, % Change from Baseline: −28%
  Mean Serum Phosphorus, Change from Baseline: -2.1 mg/dL
Serum phosphorus; Week 48, LOCF
  Mean Serum Phosphorus: 5.3 mg/dL
Serum phosphorus; Week 52, ANCOVA
  Serum Phosphorus, LS Mean: 5.33
Serum phosphorus; Week 52
  Serum Phosphorus, Change from Baseline, Mean: −2.06
  Serum Phosphorus, Change from Baseline, Median: −2.20
  Serum Phosphorus, Mean: 5.32
  Serum Phosphorus, Median: 5.20
  Serum Phosphorus, Treatment Differences, LS Mean (KRX-0502) − LS Mean (control): −0.01
  Mean Serum Phosphorus, % Change from Baseline: −28%
  Mean Serum Phosphorus, Change from Baseline: -2.1 mg/dL
Serum phosphorus; Week 52, LOCF
  Mean Serum Phosphorus: 5.3 mg/dL
[1]; Baseline
  Mean Intact FGF-23, Baseline: 319 pg/mL
[1]; Week 12, last observation carried forward
  Mean Intact FGF-23, End of Treatment (Week 12): 200 pg/mL
